# Data reported in US20070293472A1, “Novel 14 and 15 Membered Ring Compounds” (Glaxo Group Limited, priority 2003, published 2007).
# Structures can show the parent of a compound that is named as a salt.
# What was measured:
# Assay in all cases: MIC, standard broth dilution method in microtitre
# Type in all cases: cell-based
# E. faecalis ATCC 29212 = conditions: Enterococcus faecalis, ATCC29212
# Procedure: (§1) Using a standard broth dilution method in microtitre, compounds were tested for antibacterial activity. The compounds in the above examples gave minimum inhibitory concentrations (MICs) less than 1 microgram per millilitre against erythromycin-sensitive and erythromycin-resistant strains of Streptococcus pneumoniae and Streptococcus pyogenes.
# (§2) In addition, the MIC (μg/mL) of test compounds against various organisms was determined including:
# (§3) S. aureus Smith ATCC 13709, S. pneumoniae SP030, S. pyogenes 3565, E. faecalis ATCC 29212, H. influenzae ATCC 49247, M. catarrhalis ATCC 23246.
# [1] = tested on: S. aureus Smith ATCC 13709; conditions: Staphylococcus aureus, ATCC13709
# Procedure: as §1, §2, §3
# S. pneumoniae SP030 = conditions: Streptococcus pneumoniae
# Procedure: as §1, §2, §3
# S. pyogenes 3565 = conditions: Streptococcus pyogenes
# Procedure: as §1, §2, §3
# [2] = tested on: erythromycin-resistant strains of Streptococcus pneumoniae
# Procedure: as §1
# [3] = tested on: erythromycin-resistant strains of Streptococcus pyogenes
# Procedure: as §1
# H. influenzae ATCC 49247 = conditions: Haemophilus influenzae, ATCC49247
# Procedure: as §1, §2, §3
# [4] = tested on: M. catarrhalis ATCC 23246; conditions: Moraxella catarrhalis, ATCC23246
# Procedure: as §1, §2, §3
SMILES,MIC (E. faecalis ATCC 29212) [µg/mL],MIC [1] [µg/mL],MIC (S. pneumoniae SP030) [µg/mL],MIC (S. pyogenes 3565) [µg/mL],MIC [2] [µg/mL],MIC [3] [µg/mL],MIC (H. influenzae ATCC 49247) [µg/mL],MIC [4] [µg/mL]
"CC[C@@H]1OC(=O)[C@H](C)[C@H](O[C@@H]2C[C@](C)(OC)[C@H](OC(=O)CCNCCCc3cc4c(cc3F)c(=O)c(C(=O)O)cn4CC)[C@H](C)O2)[C@@H](C)[C@H](O[C@@H]2O[C@H](C)C[C@H](N(C)C)[C@@H]2O)[C@](C)(O)C[C@H](C)CN(C)[C@H](C)[C@@H](O)[C@]1(C)O [Example 2, 4″-O-{3-[3-(3-Carboxy-1,4-dihydro-1-ethyl-6-fluoro-4-oxo-7-quinolinyl)propylamino]propionyl}-azithromycin tris trifluoroacetate salt]",≤ 1,≤ 1,≤ 1,≤ 1,,,,
"CC[C@@H]1OC(=O)[C@H](C)[C@H](O[C@@H]2C[C@](C)(OC)[C@H](OC(=O)CCNCCCc3ccc4c(c3)c(=O)c(C(=O)O)cn4CC)[C@H](C)O2)[C@@H](C)[C@H](O[C@@H]2O[C@H](C)C[C@H](N(C)C)[C@@H]2O)[C@](C)(O)C[C@H](C)CN(C)[C@H](C)[C@@H](O)[C@]1(C)O [Example 5, 4″-O-{3-[3-(3-Carboxy-1,4-dihydro-1-ethyl-4-oxo-6-quinolinyl)propylamino]propionyl}-azithromycin]",,,,,≤ 0.25,≤ 0.25,,
"CC[C@@H]1OC(=O)[C@H](C)[C@H](O[C@@H]2C[C@](C)(OC)[C@H](OC(=O)CCNCCCc3ccc4c(c3)c(=O)c(C(=O)O)cn4CC)[C@H](C)O2)[C@@H](C)[C@H](O[C@@H]2O[C@H](C)C[C@H](N(C)C)[C@@H]2O)[C@](C)(O)C[C@H](C)CN(C)[C@@H](C)[C@H]2OC(=O)O[C@@]12C [Example 6, 4″-O-{3-[3-(3-Carboxy-1-dihydro-1-ethyl-4-oxo-6-quinolinyl)propylamino]propionyl}-azithromycin-11,12-carbonate]",≤ 1,≤ 1,≤ 1,≤ 1,≤ 0.25,≤ 0.25,≤ 2,≤ 2

# The next lines start with the values.
MIC (E. faecalis ATCC 29212) [µg/mL],MIC [1] [µg/mL],MIC (S. pneumoniae SP030) [µg/mL],MIC (S. pyogenes 3565) [µg/mL],MIC [2] [µg/mL],MIC [3] [µg/mL],MIC (H. influenzae ATCC 49247) [µg/mL],MIC [4] [µg/mL],SMILES
≤ 1,≤ 1,≤ 1,≤ 1,,,,,"CC[C@H]1OC(=O)[C@H](C)[C@@H](O[C@H]2C[C@@](C)(OC)[C@@H](OC(=O)CCNCCCc3cc4c(cc3F)c(=O)c(C(=O)O)cn4CC)[C@H](C)O2)[C@H](C)[C@@H](O[C@@H]2O[C@H](C)C[C@H](N(C)C)[C@H]2O)[C@](C)(OC)C[C@@H](C)C(=O)[C@H](C)[C@@H](O)[C@]1(C)O [Example 1, 4″-O-{3-[3-(3-Carboxy-1,4-dihydro-1-ethyl-6-fluoro-4-oxo-7-quinolinyl)propylamino]propionyl}-6-O-methylerythromycin A]"
,,,,≤ 0.25,≤ 0.25,≤ 2,≤ 2,"CC[C@@H]1OC(=O)[C@H](C)[C@H](O[C@@H]2C[C@](C)(OC)[C@H](OC(=O)CCNCCCc3ccc4c(c3)c(=O)c(C(=O)O)cn4CC)[C@H](C)O2)[C@@H](C)[C@H](O[C@@H]2O[C@H](C)C[C@H](N(C)C)[C@@H]2O)[C@](C)(OC)C[C@H](C)C(=O)[C@@H](C)[C@H]2NC(=O)O[C@@]12C [Example 7, 4″-O-{3-[3-(3-Carboxy-1,4-dihydro-1-ethyl-4-oxo-6-quinolinyl)propylamino]-propionyl}-6-O-methyl-11-desoxy-11-(R)-amino-erythromycin A 11,12-carbamate diformate salt]"
≤ 1,≤ 1,≤ 1,≤ 1,≤ 0.25,≤ 0.25,,,"CC[C@@H]1OC(=O)[C@H](C)[C@H](O[C@@H]2C[C@](C)(OC)[C@H](OC(=O)CCNCCCc3ccc4c(c3)c(=O)c(C(=O)OC)cn4CC)[C@H](C)O2)[C@@H](C)[C@H](O[C@@H]2O[C@H](C)C[C@H](N(C)C)[C@@H]2O)[C@](C)(OC)C[C@H](C)C(=O)[C@@H](C)[C@H]2NC(=O)O[C@@]12C [Example 8, 4″-O-{3-[3-(3-Carboxy-1,4-dihydro-1-ethyl-4-oxo-6-quinolinyl)propylamino]propionyl}-6-O-methyl-11-desoxy-11-(R)-amino-erythromycin A 11,12-carbamate methyl ester diformate salt]"
